Assay results from publication doi:10.1101/2023.11.09.566481v1 (biorxiv, 2023).
Where two headings read alike, the source gives them in different places.

Columns and labels:
[1] = target: T1, hSirt3^102-399 (Homo sapiens, UniProt Q9NTG7); assay: biochemical; conditions: read-out: % Control Non-Steady state
T1 sequence (Q9NTG7 102-399): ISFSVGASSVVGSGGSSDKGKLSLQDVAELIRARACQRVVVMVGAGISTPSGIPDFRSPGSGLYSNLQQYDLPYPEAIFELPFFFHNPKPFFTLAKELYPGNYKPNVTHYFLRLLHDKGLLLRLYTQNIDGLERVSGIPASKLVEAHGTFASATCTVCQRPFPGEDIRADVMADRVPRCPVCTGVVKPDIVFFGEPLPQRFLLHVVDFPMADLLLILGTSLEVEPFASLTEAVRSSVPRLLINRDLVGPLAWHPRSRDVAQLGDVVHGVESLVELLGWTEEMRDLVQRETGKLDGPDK

[2] = target: T1, hSirt3^102-399; assay: biochemical; conditions: read-out: % Control Steady-state

Structure (SMILES): C=CCc1ccc(O)c(-c2ccc(O)c(CC=C)c2)c1 [Honokiol]
- remaining activity at 10 µM [1]: 110%
- remaining activity at 10 µM [2]: 85.9%
